# From paper PMC2682197, “Mycobacterium tuberculosis Universal Stress Protein Rv2623 Regulates Bacillary Growth by ATP-Binding: Requirement for Establishing Chronic Persistent Infection” (PLoS Pathogens, 2009)
# Target: Rv2623 (Mycobacterium tuberculosis, UniProt P9WFD7)
# Sequence (P9WFD7 whole entry): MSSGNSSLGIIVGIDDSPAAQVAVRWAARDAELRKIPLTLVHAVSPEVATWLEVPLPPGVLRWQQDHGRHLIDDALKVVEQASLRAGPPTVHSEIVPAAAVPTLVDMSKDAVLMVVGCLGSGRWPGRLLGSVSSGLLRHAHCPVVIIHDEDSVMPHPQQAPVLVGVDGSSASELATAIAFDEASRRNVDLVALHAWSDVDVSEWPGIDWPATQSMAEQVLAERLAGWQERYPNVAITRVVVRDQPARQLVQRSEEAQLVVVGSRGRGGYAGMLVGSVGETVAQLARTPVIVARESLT
smiles,measurement,value
Nc1ncnc2c1ncn2[C@@H]1O[C@H](COP(=O)(O)OP(=O)(O)O)[C@@H](O)[C@H]1O [ADP],HPLC of nucleotide extracted from purified protein by boiling,His6-Rv2623 co-purifies with both ATP and ADP
